Experimental data taken from the METLIN SMRT retention time set (Domingo-Almenara et al. 2019).

Assay: gradient 5% acetonitrile 3 min, to 50% in 2 min, to 85% in 15 min, held 3 min, 100 µL/min
Settings: column: Zorbax Extend-C18 2.1 x 50 mm; eluents: water / acetonitrile, 0.1% formic acid
Summary of the method: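 Data were gathered over 3 months by HPLC coupled to a quadrupole time-of-flight mass spectrometer, operated in positive and negative ionization mode. Mixtures of ~100 pure standards ran on a Zorbax Extend-C18 column (2.1 × 50 mm, 1.8 μm) at 100 μL/min, with water and acetonitrile each containing 0.1% formic acid and dead and dwell volumes of 40 μL and 900 μL. Retention time was read from adduct peaks picked by computer and checked manually.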

RP-LC retention time	SMILES
927 s	CCCOc1ccccc1C(=O)N(Cc1ccc(Br)o1)C1CCS(=O)(=O)C1 (stereo not given)
594 s	c1ccc(-c2csc(Nc3ncccn3)n2)nc1
1310 s	CC(C)CCn1nc(-c2nc(-c3cccc(Cl)c3)no2)ccc1=O
650 s	CNC(=O)[C@@H]1C[C@H](Oc2ccccc2)CN1C(=O)c1n[nH]c(=O)c2ccccc12
655 s	CCCNC(=O)c1cn(-c2ccc(NC(=O)C3CC3)cn2)cn1
686 s	O=C(Cc1ccc(Cl)cc1)N1CC(Cc2nncn2CC2CC2)C1
576 s	CCNc1cc(N2CCC(CCC(=O)O)CC2)ncn1
707 s	CSc1cccc(NC(=O)Cn2nc3n(c2=O)CCCCC3)c1
976 s	Cc1cccc(C)c1-n1ccn(Cc2nc(-c3ccc(F)c(Cl)c3)no2)c(=O)c1=O
876 s	CN1C(=O)c2cccnc2Sc2cc(NC(=O)c3cccc(Br)c3)ccc21
694 s	CSc1ccc(Cc2nnc(NC(=O)c3nn(C)cc3C)o2)cc1
797 s	CCn1cnc(S(=O)(=O)N2CCC(C(=O)Nc3cc(C)cc(C)c3)CC2)c1
723 s	CN1C(=O)CC[C@]2(C(=O)N3CCN(c4ccc(F)cc4)CC3)CCCC[C@@H]12
713 s	Cc1cc2c(N3CCCC(C(=O)NCc4cccc(Cl)c4)C3)nccc2s1 (stereo not given)
982 s	CCCCC(C(=O)O)C(C)CC(=O)Nc1nc(-c2ccccc2)cs1 (stereo not given)
716 s	COc1ccc(OC)c2sc(NC(=O)c3cccc(N4C(=O)CCC4=O)c3)nc12
1040 s	O=C(Nc1cccc(Cl)c1)C(=O)c1c[nH]c2ccccc12
1250 s	Cc1ccc(-c2nc(NC(=O)Cc3csc(-c4ccccc4)n3)sc2C)cc1
986 s	Cc1ccc(N2CC(c3nc(-c4ccc5c(c4)OCO5)no3)CC2=O)cc1F (stereo not given)
1010 s	CC1CCCN(S(=O)(=O)c2ccc(-c3nnc(C4CCC4)o3)o2)C1 (stereo not given)
663 s	Cc1noc(C)c1S(=O)(=O)N1CC(c2nnc(-c3ccncc3)o2)C2(CCOCC2)C1 (stereo not given)
814 s	c1ccc(Cn2cc(-c3noc(-c4ccccc4)n3)nn2)cc1
963 s	CCc1ccc(OCC(=O)N(Cc2ccc(Br)o2)C2CCS(=O)(=O)C2)cc1 (stereo not given)

RP-LC retention time	SMILES
1010 s	COc1ccc(OC)c(NC(=O)CN2c3ccc(F)cc3-c3ccccc3S2(=O)=O)c1
858 s	Cc1noc(C)c1S(=O)(=O)N1CCC(C(C)C(=O)NCCc2c[nH]c3ccccc23)CC1 (stereo not given)
811 s	CCSc1nnc(-c2nn(C)c3c2CN(C(=O)c2cc(C)cc(C)c2)CC3)n1C
739 s	Cn1c(C2CCN(S(C)(=O)=O)CC2)nn(Cc2ccc(Cl)c(Cl)c2)c1=O
813 s	Cc1ccc(NC(=O)C2CCN(C(=O)c3ncn4c3COC(c3ccc(F)cc3)C4)CC2)c(F)c1 (stereo not given)
645 s	Cc1cc(OCC(=O)NCc2ccc(Cl)cc2)nc(N2CCCC2)n1
826 s	Cc1ccc(-c2cn3c(CC(=O)NCc4ccccc4)csc3n2)cc1C
745 s	Cc1ccccc1NC(=O)Cn1nc2c(N(C)C3CCCCC3)nccn2c1=O
730 s	COC(=O)c1c(C)[nH]c(C(=O)N2CCCC(C(=O)NCCC(C)C)C2)c1C (stereo not given)
705 s	CN(C)C(CNC(=O)c1cc(-c2ccc3c(c2)OCCO3)on1)c1ccc(Cl)cc1 (stereo not given)
1040 s	Cc1cc(C)c(S(=O)(=O)N2CCCCC2)c(C)c1[N+](=O)[O-]
884 s	COc1ccc(-n2nc(N3CCCC(C(=O)NC(C)CCc4ccccc4)C3)ccc2=O)cc1 (stereo not given)
597 s	Cc1ccc(-c2[nH]ncc2CN2CCC3(CC2)CC(C)(O)CCO3)cc1 (stereo not given)
604 s	Cc1nc(N2CCN(CCO)CC2)nc2c1C(=O)CC(C)(C)C2
727 s	Cc1noc(-c2ccc(NC(=O)C3CC(=O)N(c4ccccc4)C3)cc2)n1 (stereo not given)
626 s	Cn1c(CCNC(=O)c2ccc(Cl)s2)nc2cccnc21
954 s	O=C(Nc1cnc(N2CCCCCC2)nc1)c1ccc(F)cc1F
718 s	O=C(NC1CCN(C(=O)c2cc(-c3cccs3)[nH]n2)CC1)c1ccccc1Cl
715 s	COc1ccc(-c2nc3cc(C)ccn3c2NC(=O)c2cc(Br)ccc2Cl)cc1
958 s	CCOc1ccc(C2Cn3nnc(-c4nc(-c5ccncc5)no4)c3CO2)cc1 (stereo not given)
656 s	CCc1ccc2oc(C(=O)NCC(c3ccc(OC)cc3)N(C)C)cc(=O)c2c1 (stereo not given)
776 s	O=C(CN1CCN(Cc2ccc(F)cc2)C1=O)NCCc1cccs1
764 s	CCOC(=O)c1sc(NC(=O)Cn2nc3c(cc2=O)CCCC3)nc1C

RP-LC retention time	SMILES
947 s	CC1=C(C(=O)OC(C)C)C(c2cccc([N+](=O)[O-])c2)C(C(=O)OC2CN(C(c3ccccc3)c3ccccc3)C2)=C(N)N1 (stereo not given)
891 s	Cc1nn(CC(=O)NCc2cc(F)cc(F)c2)c(=O)c2nc(-c3ccccc3)sc12
691 s	O=C(NCCc1csc(C2CCCN(C(=O)C3CCC3)C2)n1)C1CC1 (stereo not given)
949 s	COc1ccc(Nc2nc(-c3nnn(-c4cc(F)ccc4F)c3C)ns2)cc1
911 s	CSc1ccc(Cl)c(C(=O)Nc2cccn3c(C4CCC4)nnc23)c1
868 s	COc1cc(-c2nc3ncccn3c2NC2CCC(C)CC2)ccc1OC(C)C (stereo not given)
1090 s	c1cnn(-c2ccc(-c3noc(C4CCC4)n3)cn2)c1
716 s	O=c1c2cnc3nc(-c4ccc(Cl)cc4)nn3c2ccn1CCO
1130 s	Cc1ccc2c(c1)N(Cc1nc(-c3ccc(Cl)cc3)no1)C(=O)CO2
598 s	CCOCC(=O)N1CCC2(CCC2O)CC1 (stereo not given)
717 s	O=S(=O)(c1ccc(-c2nnc(C3CC3)o2)o1)N1CCOCC1
835 s	CCOC(=O)c1c(C)[nH]c(C(=O)N2CCC(CC(=O)NC3CCCCCC3)CC2)c1C
574 s	CCCNc1cc(N2CCC(CCC(=O)NCCN3CCc4ccccc4C3)CC2)ncn1
1150 s	Cc1ccc(-c2nnc(-c3ccc(Cl)c(S(=O)(=O)N4CCCC4)c3)o2)cc1
648 s	CCCNC(=O)C1CCN(S(=O)(=O)c2cc(C(=O)N3CCCC3)n(C)c2)CC1
932 s	CC(C)n1c(=O)sc2cc(S(=O)(=O)N3CCC(C(=O)NCc4ccccc4)CC3)ccc21
742 s	COc1ccc(NC(=O)NC(C)C(=O)N2CCc3ccccc32)cc1OC (stereo not given)
719 s	O=C(Nc1cccn2cnnc12)c1ccc(Cl)s1
766 s	O=C(Cc1nnc(-c2cnccn2)o1)Nc1ccc(C(F)(F)F)cc1
580 s	CN1CCN(CCNC(=O)c2ccc3ccnc(N4CCN(c5ccc(F)cc5)CC4)c3c2)CC1
549 s	CCN1CCN(CCCNC(=O)Cc2c(C(=O)O)c(C)cn2C)CC1
703 s	Cc1nnc([C@@H]2CC(F)(F)CN2C(=O)c2ccc3c(c2)OCO3)o1
912 s	COc1ccc(CN2CC(F)(F)C[C@H]2c2nnc(-c3cnccn3)o2)cc1C

RP-LC retention time	SMILES
902 s	COc1ccc(C2(C(=O)Nc3ccc4c(c3)Sc3ncccc3C(=O)N4C)CC2)cc1
642 s	c1cc(-c2nc(-c3ccc4c(c3)nnn4CCN3CCCCC3)no2)co1
563 s	CCN(CC)S(=O)(=O)c1c[nH]c(=O)[nH]c1=O
707 s	O=C(COc1ccc(F)cc1)Nc1cnc(-c2cccnc2)nc1
825 s	O=C(NCc1ccco1)c1ccc(OCc2nc(C3CC3)cs2)cc1
604 s	NC(=O)c1cc(C(N)=O)nc(Cl)n1
655 s	Cc1ccc(Cn2c(CN3CCC(C(=O)NCc4ccccn4)CC3)cc3ccccc32)cc1
647 s	O=C(NCc1cccc(Cl)c1)C1CCN(c2cncnc2N2CCOCC2)CC1
1070 s	O=C(Nc1cccc(Cl)c1)C1CCCN(C(=O)Cc2cccc3ccccc23)C1 (stereo not given)
818 s	COc1ccc(Cl)cc1C(=O)Nc1cnc(N2CCCC2)nc1
593 s	Cn1cnc(S(=O)(=O)N2CCC3(CC2)N(c2ccccc2)C(=O)CS3=O)c1 (stereo not given)
805 s	Cc1nc(-c2cn(-c3cccc(F)c3)nn2)no1
662 s	O=C([C@@H]1C[C@H](F)CN1C(=O)c1cccs1)N1CCCCC1
689 s	O=C(NCc1ccccc1F)C1CCN(c2cnc3nccnc3c2)CC1
1000 s	COc1cccc(-c2cc3c(=O)n(Cc4nc(-c5ccccc5)no4)ccn3n2)c1
826 s	Cc1cccc(-c2nc(CNC(=O)C(C)(C)C)no2)c1
786 s	CCN1c2ccc(F)cc2C(=O)NC12CCN(C(=O)c1cccc(OC)c1)CC2
576 s	Cn1cc(C(=O)O)c(S(=O)(=O)N2CCOCC2)n1
822 s	COc1ccc(OC)c(NC(=O)CCc2c(C)nn(-c3cc(N(C)C)ncn3)c2C)c1
552 s	CN1CCC(N2CCN(S(=O)(=O)c3ccc(F)cc3)CC2)C1=O (stereo not given)
779 s	CCc1ccc(S(=O)(=O)N2CCC3(CC2)NCCN=C3NCc2ccccc2OC)cc1
